Measurements taken from PubChem BioAssay AID330 (DTP/NCI, 2004).
Several values for one entry are separate records, joined by “and”; a condition that tells them apart may be missing. Equal values may be shown once. Toxic doses and inconclusive results are not listed. Rule for the calls: active = survival T/C of 150% or more; inactive = T/C below 125% in these data.

Tested on: P388 leukemia ip, CD2F1 mice, survival T/C
Assay: NCI In Vivo Anticancer Drug Screen. Data for tumor model P388 Leukemia (intraperitoneal) in CD2F1 (CDF1) mice
Conditions: endpoint: median survival time, higher = longer survival
Procedure, shortened: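 Mice carrying the transplanted tumor received test compound or vehicle. Survival was recorded in each group, and the value is the treated-group measurement divided by that of the vehicle-treated control group.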

[1] = dose: 50.0 mg/kg/injection, schedule: Q01DX009 (ip), vehicle: saline with Tween-80
[2] = dose: 12.5 mg/kg/injection, schedule: Q01DX009 (ip), vehicle: distilled water + Tween-80
[3] = dose: 25.0 mg/kg/injection, schedule: Q01DX009 (ip), vehicle: distilled water + Tween-80
[4] = dose: 50.0 mg/kg/injection, schedule: Q01DX009 (ip), vehicle: distilled water + Tween-80
[5] = dose: 200.0 mg/kg/injection, schedule: Q01DX009 (ip), vehicle: distilled water + Tween-80
[6] = dose: 50.0 mg/kg/injection, schedule: Q01DX005 (ip), vehicle: Klucel (hydroxypropylcellulose) (HPC)
[7] = dose: 100.0 mg/kg/injection, schedule: Q01DX005 (ip), vehicle: Klucel (hydroxypropylcellulose) (HPC)
[8] = dose: 200.0 mg/kg/injection, schedule: Q01DX005 (ip), vehicle: Klucel (hydroxypropylcellulose) (HPC)
[9] = dose: 100.0 mg/kg/injection, schedule: Q04DX003 (ip), vehicle: saline with Tween-80
[10] = dose: 200.0 mg/kg/injection, schedule: Q04DX003 (ip), vehicle: saline with Tween-80

Measured: T/C

CN=c1ccc2nc3ccc(N)cc3sc-2c1
inactive: dose: 12.5 mg/kg/injection, schedule: Q01DX005 (ip), vehicle: saline 105 % of control | dose: 25.0 mg/kg/injection, schedule: Q01DX005 (ip), vehicle: saline 107 % of control | dose: 50.0 mg/kg/injection, schedule: Q01DX005 (ip), vehicle: saline 103 % of control

C1CC[N+](=c2nc(N3CCOCC3)ss2)C1
inactive: dose: 50.0 mg/kg/injection, schedule: Q04DX002 (ip), vehicle: saline with Tween-80 100 % of control | dose: 100.0 mg/kg/injection, schedule: Q04DX002 (ip), vehicle: saline with Tween-80 99 % of control | dose: 200.0 mg/kg/injection, schedule: Q04DX002 (ip), vehicle: saline with Tween-80 99 % of control

CN1CCC(CN2c3ccccc3Sc3ccccc32)C1 (stereo unspecified)
inactive: dose: 12.5 mg/kg/injection, schedule: Q01DX009 (ip), vehicle: saline with Tween-80 104 % of control | dose: 25.0 mg/kg/injection, schedule: Q01DX009 (ip), vehicle: saline with Tween-80 107 % of control | [1] 116 % of control

O=C(NC1C=Nc2ccc(Cl)cc2NC1=O)c1ccc2ccccc2c1 (stereo unspecified)
inactive: dose: 60.0 mg/kg/injection, schedule: Q01DX005 (ip), vehicle: Klucel (hydroxypropylcellulose) (HPC) 90 % of control | dose: 120.0 mg/kg/injection, schedule: Q01DX005 (ip), vehicle: Klucel (hydroxypropylcellulose) (HPC) 91 % of control | dose: 240.0 mg/kg/injection, schedule: Q01DX005 (ip), vehicle: Klucel (hydroxypropylcellulose) (HPC) 92 % of control

Cc1noc(N(C)C)c1C
inactive: dose: 50.0 mg/kg/injection, schedule: Q01DX009 (ip), vehicle: saline 102 % of control | dose: 100.0 mg/kg/injection, schedule: Q01DX009 (ip), vehicle: saline 100 % of control | dose: 200.0 mg/kg/injection, schedule: Q01DX009 (ip), vehicle: saline 108 % of control

O=C(CSC(=S)N1CCCCC1)c1ccc([N+](=O)[O-])cc1
inactive: [2] 98 % of control | [3] 96 % of control | [4] 90 % of control | dose: 100.0 mg/kg/injection, schedule: Q01DX009 (ip), vehicle: distilled water + Tween-80 90 % of control | [5] 89 % of control

COc1ccc(OC)c2c(=O)c(C)c(C(=O)O)[nH]c12
inactive: dose: 100.0 mg/kg/injection, schedule: Q01DX001 (ip), vehicle: alkali diluted with saline 103 % of control | dose: 200.0 mg/kg/injection, schedule: Q01DX001 (ip), vehicle: alkali diluted with saline 100 % of control | dose: 400.0 mg/kg/injection, schedule: Q01DX001 (ip), vehicle: alkali diluted with saline 98 % of control

CCN(CC)C1=C(c2ccccc2)C(=O)C1(C#N)C(C)(C)C (stereo unspecified)
inactive: [6] 98 % of control | [7] 93 % of control | [8] 93 % of control

O=C(NO)Nc1cc(Cl)cc(Cl)c1
inactive: dose: 60.0 mg/kg/injection, schedule: Q01DX005 (ip), vehicle: saline with Tween-80 114 % of control | dose: 120.0 mg/kg/injection, schedule: Q01DX005 (ip), vehicle: saline with Tween-80 114 % of control

C=CCC12CC(O)C(O)CC1(O)OC(c1cc(OC)c(OC)c(OC)c1)C2C (stereo unspecified)
inactive: dose: 1.25 mg/kg/injection, schedule: Q01DX005 (ip), vehicle: acid diluted with saline 115 % of control | dose: 2.5 mg/kg/injection, schedule: Q01DX005 (ip), vehicle: acid diluted with saline 102 % of control | dose: 5.0 mg/kg/injection, schedule: Q01DX005 (ip), vehicle: acid diluted with saline 100 % of control | dose: 10.0 mg/kg/injection, schedule: Q01DX005 (ip), vehicle: acid diluted with saline 93 % of control

Nc1ccc2c(-c3ccccc3)cc(=O)[nH]c2c1
inactive: [6] 95 % of control | [7] 100 % of control

CCN(CCN1C(=O)COCC1=O)c1ccccc1
inactive: [9] 105 % of control | [10] 104 % of control | dose: 400.0 mg/kg/injection, schedule: Q04DX003 (ip), vehicle: saline with Tween-80 96 % of control

N=C(N)SCCC(=O)Nc1ccccc1
inactive: [9] 106 % of control | [10] 106 % of control

Cc1ccc(S(=O)(=O)NN=C(C(=O)O)C(=O)O)cc1
inactive: [2] 101 % of control | [3] 102 % of control | [4] 100 % of control | [5] 90 % of control

CC(NC(=O)OC(C)(C)C)C(=O)NC(C)C(=O)OCc1ccccc1 (stereo unspecified)
inactive: dose: 50.0 mg/kg/injection, schedule: Q01DX005 (ip), vehicle: saline with Tween-80 99 % of control | dose: 100.0 mg/kg/injection, schedule: Q01DX005 (ip), vehicle: saline with Tween-80 89 % of control and 105 % of control | dose: 200.0 mg/kg/injection, schedule: Q01DX005 (ip), vehicle: saline with Tween-80 92 % of control

CCCCCCCOc1ccc(OCCCC[N+]2(CC)CCCCC2)cc1
inactive: dose: 1.56 mg/kg/injection, schedule: Q01DX009 (ip), vehicle: saline 103 % of control | dose: 3.12 mg/kg/injection, schedule: Q01DX009 (ip), vehicle: saline 100 % of control | dose: 6.25 mg/kg/injection, schedule: Q01DX009 (ip), vehicle: saline 102 % of control

C=C1C(=O)OC2CC1C(OC(C)=O)C/C(C)=C/CC/C(C)=C\CCC2(C)O (stereo unspecified)
inactive: dose: 5.0 mg/kg/injection, schedule: Q01DX009 (ip), vehicle: Klucel (hydroxypropylcellulose) (HPC) 107 % of control | dose: 8.0 mg/kg/injection, schedule: Q01DX009 (ip), vehicle: Klucel (hydroxypropylcellulose) (HPC) 103 % of control | dose: 10.0 mg/kg/injection, schedule: Q01DX009 (ip), vehicle: Klucel (hydroxypropylcellulose) (HPC) 109 % of control | dose: 16.0 mg/kg/injection, schedule: Q01DX009 (ip), vehicle: Klucel (hydroxypropylcellulose) (HPC) 95 % of control | dose: 20.0 mg/kg/injection, schedule: Q01DX009 (ip), vehicle: Klucel (hydroxypropylcellulose) (HPC) 116 % of control | dose: 25.0 mg/kg/injection, schedule: Q04DX002 (ip), vehicle: saline 100 % of control | dose: 32.0 mg/kg/injection, schedule: Q01DX009 (ip), vehicle: Klucel (hydroxypropylcellulose) (HPC) 106 % of control | dose: 40.0 mg/kg/injection, schedule: Q01DX009 (ip), vehicle: Klucel (hydroxypropylcellulose) (HPC) 117 % of control | dose: 50.0 mg/kg/injection, schedule: Q04DX002 (ip), vehicle: saline 94 % of control | dose: 64.0 mg/kg/injection, schedule: Q01DX009 (ip), vehicle: Klucel (hydroxypropylcellulose) (HPC) 106 % of control | dose: 100.0 mg/kg/injection, schedule: Q04DX002 (ip), vehicle: saline 103 % of control | dose: 200.0 mg/kg/injection, schedule: Q04DX002 (ip), vehicle: saline 103 % of control

COc1cccc2c1C(=O)c1c(O)c3c(c(O)c1C2=O)C[C@@H](C(C)=O)C[C@@H]3OC1CC(N)C(O)C(C)O1 (stereo partly specified)
inactive: dose: 6.25 mg/kg/injection, schedule: Q04DX003 (ip), vehicle: water 109 % of control | dose: 12.5 mg/kg/injection, schedule: Q04DX003 (ip), vehicle: water 120 % of control | dose: 25.0 mg/kg/injection, schedule: Q04DX003 (ip), vehicle: water 113 % of control | dose: 50.0 mg/kg/injection, schedule: Q04DX003 (ip), vehicle: water 120 % of control | dose: 100.0 mg/kg/injection, schedule: Q04DX003 (ip), vehicle: water 93 % of control

S=C1SCN(Cc2ccco2)CN1Cc1ccco1
inactive: [1] 94 % of control | dose: 100.0 mg/kg/injection, schedule: Q01DX009 (ip), vehicle: saline with Tween-80 94 % of control

Cc1cc2c(oc(=O)c3cc(C)sc32)s1
inactive: [6] 99 % of control | [7] 103 % of control | [8] 97 % of control
